Common to all, as to experiment: growth of human tumour cells (NCI), 48 h
Experiment [1] deals with TK-10 renal.
Experiment [2] concerns K-562 leukemia.
Experiment [3] relates to A549 NSCLC.
Experiment [4] concerns NCI/ADR-RES ovarian.
In experiment [5] the test system is OVCAR-3 ovarian.
Experiment [6] has as its system MALME-3M melanoma.
For experiment [7], the system named is OVCAR-8 ovarian.
Experiment [8] deals with SK-MEL-28 melanoma.
Experiment [9] concerns RXF 393 renal.
The test system of experiment [10] is PC-3 prostate.

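Method: 48-hour compound exposure of cells in 96-well plates, five concentrations, linear interpolation of endpoints. GI50 = concentration required for 50% inhibition of growth. TGI marks complete inhibition of growth.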

For nine compounds, GI50 and TGI results are on record in PubChem BioAssay (NCI).

For `COC(=O)[C@]12CC[C@@H](C)[C@H](C)[C@@H]1C1=CC[C@@H]3[C@@]4(C)C(C=O)=C[C@@](C)(COS(C)(=O)=O)C4=CC[C@@]3(C)[C@]1(C)CC2`, the GI50 was 211 nM in experiment [1]; 308 nM in experiment [2]; 468 nM in [3]; 325 nM in experiment [4]; 183 nM in [5]; 173 nM in experiment [6]. Further, the GI50 was 332 nM in experiment [7], 198 nM in [8] and 170 nM in experiment [9]. Further, the TGI amounted to 512 nM in experiment [1]; 1170 nM in experiment [2]; 1920 nM in experiment [3]; 1970 nM in experiment [4]; 359 nM in experiment [5]; 340 nM in experiment [6]. Besides, the TGI came out at 1620 nM in experiment [7], 415 nM in [8] and 358 nM in [9].
On to `CCCC(O)[C@@]1(CC)CC(C)C(O)(C2(C)C[C@H](C)[C@@H](C(CC)C(=O)C(C)[C@@H](O)[C@H](C)C3OC(O)(C(CC)C(=O)O)[C@@H](C)C(O)C3CC)O2)O1` (some centres undefined), for which the TGI was 6740 nM in [1]; 1760 nM in experiment [10]; 5710 nM in [3]; 1820 nM in [4]; 2620 nM in [5]; 392 nM in experiment [6]. The TGI in [7] is 6050 nM; in [8], 1690 nM; in experiment [9] it was 1610 nM.
Turning to `[O-][n+]1c2cccc(O)c2[n+]([O-])c2cccc(O)c21`, the TGI in [1], in experiment [2], in experiment [10], in [3], in [4] and in [5] was > 100000 nM in each case. Besides, the TGI in experiment [7] and in experiment [9] was > 100000 nM each time.
On to `C/C(=C/CCC(C)[C@@H]1CC[C@]2(C)C3=C(CC[C@@]12C)[C@@]1(C)CCC(=O)C(C)(C)[C@@H]1CC3)C(=O)O` (some centres undefined), for which the GI50 in experiment [1] was 1450 nM; in experiment [10], 1120 nM; in experiment [3], 387 nM; in experiment [4], 1540 nM; in experiment [5], 1410 nM; in experiment [6], 1660 nM. Also, the GI50 in [7] was 1420 nM; in experiment [8], 1420 nM; in experiment [9], 1510 nM. In addition, the TGI was determined as 2830 nM in experiment [1]; 2510 nM in [10]; 1840 nM in experiment [3]; 3260 nM in [4]; 2790 nM in experiment [5]; 3500 nM in experiment [6]. Further, the TGI in [7] is 3200 nM; in experiment [8], 2820 nM; in experiment [9], 3080 nM.
As to `CC(C)(C)O/N=C/c1cc(NC(=S)c2ccccc2)ccc1Cl`, the TGI in experiment [1] came to 31100 nM; in experiment [10], 46000 nM; in experiment [3], 35100 nM; in experiment [4], 33500 nM; in experiment [5], 35300 nM; in [6], 40600 nM. The TGI was 35600 nM in [7], 32500 nM in experiment [8] and 27900 nM in [9].
With `N#CN1CC[C@H](C(=O)Nc2ncc(-c3ccccc3)s2)C1`, the GI50 in experiment [1] was 1190 nM; in experiment [2], 455 nM; in experiment [10], 706 nM; in experiment [3], 1900 nM; in experiment [4], 724 nM; in [5], 346 nM. The values for the GI50 in [6], in [7] and in experiment [8] were 232 nM, 450 nM and 1090 nM, respectively. For the same compound, the TGI in [1] stood at 2990 nM; in experiment [2], 11000 nM; in [10], 2970 nM; in experiment [3], 8610 nM; in [4], 8010 nM; in [5] it was 1440 nM. Moreover, the TGI in [6] amounted to 1420 nM; in experiment [7], 6460 nM; in [8], 3010 nM.
Take `C[C@]12CCc3nc(Nc4ccc(O)cc4)sc3C1=CC[C@@H]1[C@@H]2CC[C@]2(C)/C(=N/NC(N)=S)CC[C@@H]12`: the GI50 in experiment [1] was 2130 nM; in experiment [10], 1580 nM; in experiment [3], 498 nM; in experiment [4], 2380 nM; in [5], 1560 nM; in [6], 1120 nM. Also, the GI50 was 1740 nM in experiment [7], 1510 nM in experiment [8] and 1230 nM in experiment [9]. In addition, the TGI in experiment [1] came out at 4350 nM; in [10], 5280 nM; in experiment [3] it was 1860 nM; in experiment [4], 7510 nM; in [5], 3120 nM; in experiment [6], 2380 nM. In addition, the TGI in [7] came to 4550 nM; in experiment [8], 3400 nM; in experiment [9], 2690 nM.
`O=C(Nc1ccc(-n2cc(-c3ccncc3)c(-c3ccc(Cl)c(O)c3)n2)cc1)c1cc(C(F)(F)F)cc(C(F)(F)F)c1`: the GI50 was 7550 nM in [1]; 4970 nM in [2]; 3290 nM in [10]; 5430 nM in experiment [3]; 6910 nM in [4]; 3440 nM in [5]. Moreover, the GI50 in experiment [7] is 6540 nM; in [8] it was 4880 nM; in experiment [9], 1320 nM. In addition, the TGI in experiment [1] was 23000 nM; in experiment [2], 88000 nM; in experiment [10] it was 28500 nM; in experiment [3], 22000 nM; in [4], > 100000 nM; in experiment [5], 12200 nM. Further, the TGI in experiment [7] amounted to 34800 nM; in experiment [8] it was 20000 nM; in [9] it was 3100 nM.
With `COc1cc([C@@H]2c3cc4c(cc3[C@H](SC(=N)N)[C@H]3COC(=O)[C@H]23)OCO4)cc(OC)c1OC`, the GI50 in [1] is 2480 nM; in experiment [2] it was 140 nM; in [10], 381 nM; in experiment [3] it was 305 nM; in experiment [4], 253 nM; in [5], 76.7 nM. Also, the GI50 is 348 nM in experiment [7], 14400 nM in experiment [8] and 2300 nM in experiment [9]. In addition, the TGI is > 78900 nM in [1]; > 100000 nM in experiment [2]; > 100000 nM in [10]; > 100000 nM in experiment [3]; > 100000 nM in experiment [4]; 350 nM in [5]. Besides, the results for the TGI in experiment [7], in experiment [8] and in [9] were > 100000 nM, > 100000 nM and 35600 nM, respectively.
